Experiment: Browning of the sprayed regions of the edible material with polysaccharide in the liquid composition
Assay type: physicochemical
Conditions: polysaccharide included in the liquid composition
Description: The polysaccharide comprised in the liquid composition of the process of the invention may be selected from the group consisting of maltodextrin, acacia gum, agar-agar, carrageenan, tragacanth, locust bean gum, guar gum, xanthan gum and combinations of these. […] The polysaccharide may be carrageenan or acacia gum.

| Substance | browning of the sprayed regions of the edible material |
| --- | --- |
| acacia gum | particularly effective at preventing or delaying browning |
| Carrageenan | particularly effective at preventing or delaying browning |
